How the values were obtained:
[1] = biological target: T1, Recombinant CXCR4 receptor (Homo sapiens, UniProt P61073); test: G.Validation fluorescence assay of CXCR4 receptor conformational changes in lipidic micelles SB2L4 and SB3L1; format: biochemical; conditions: SB2L4 and SB3L1, 40 min
T1 construct: host or cells: HEK-293 T cells
Excerpt: G.Validation® assay is […] biotech proprietary fluorescence based assay that assesses conformational changes of a receptor upon activation/inactivation. Recombinant CXCR4 receptor is produced and purified from HEK-293 T cells using […] proprietary mixes. Receptor is then reconstituted in detergent buffers containing lipids mimicking the lipidic composition of dendritic cells (DC) and macrophages (SB2L4 and SB3L1). Thereafter, the receptor is labelled with a non-modifying probe allowing the detection of the activation state and conformational change of the receptor upon addition of a ligand. Indeed, the probe emission spectra maximum wavelength (Amax) shifts according to activation/inactivation of the receptor. Thus, kinetic of activation/inactivation of the receptor can be followed by monitoring Amax shift after addition of a ligand over time. Emission spectra were registered for 40 minutes after addition of each ligand. […] Activation/inactivation kinetics were also followed using an exemplary compound of formula (I), i.e.

[2] = tested on: irrelevant G-protein coupled receptor (GPCR); test: G.Validation fluorescence assay on irrelevant GPCR control; format: biochemical; conditions: SDF1α 15 μM, AMD3100 100 μM, Example 60 150 μM; SB3L1
Male C57BL/6 Rj mice = test: In vivo evaluation of CXCR4 antagonistic activity by mobilisation of blood cells; parameters: species or system mouse; conditions: 20 mg/kg single i.p., 2:30 h after injection; shown also for neutrophils, monocytes, lymphocytes, eosinophils
Procedure: Male C57BL/6 Rj mice (7 weeks old) were obtained from Janvier (Le Genest-Saint-Isle, France). Mice were treated by a single intraperitoneal (i.p.) administration at timepoint 0 h. The experimental groups (n=10) were defined as follows: • Mice of group 1 were treated with vehicle only (0.9% NaCl aqueous solution) • Mice of group 2 were treated with AMD3100 (CXCR4 antagonist, Sigma-Aldrich, St Louis, USA) at 20 mg/kg (volume of 10 mL/kg) in 0.9% NaCl aqueous solution • Mice of group 3 were treated with an exemplary compound of formula (I), i.e. Example 60, at 30 mg/kg (volume of 10 mL/kg) in 0.9% NaCl aqueous solution
After 2:30 h, whole blood (at least 200 μl, max 1 mL) was collected in EDTA tubes before sacrifice by an intracardiac puncture under isoflurane anaesthesia and haematology parameters were determined the same day by laser flow cytometry, optical fluorescence and Laminar Flow Impedance™ using the ProCyte Dx hematology analyser (IDEXX, Eau Claire, USA). Differential leukocyte counts were performed to quantify specific immune cell types. Data are reported as total number of cells (K/μL), mean±S.E.M., as well as the statistical significance versus the vehicle control group using unpaired t-tests.

T1 sequence (P61073 whole entry): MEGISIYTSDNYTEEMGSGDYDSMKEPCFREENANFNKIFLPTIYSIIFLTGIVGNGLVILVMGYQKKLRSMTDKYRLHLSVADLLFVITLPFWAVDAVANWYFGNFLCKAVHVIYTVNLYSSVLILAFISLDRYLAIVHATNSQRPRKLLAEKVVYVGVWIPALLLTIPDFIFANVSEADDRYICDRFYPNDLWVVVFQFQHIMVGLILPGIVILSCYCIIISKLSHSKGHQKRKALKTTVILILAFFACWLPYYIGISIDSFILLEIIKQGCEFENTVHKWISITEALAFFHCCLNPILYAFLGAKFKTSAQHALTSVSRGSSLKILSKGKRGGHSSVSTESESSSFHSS

- CXCR4 structural activation/inactivation, Amax shift in fluorescence ([1]; ligand 100 μM added after Example 60 150 μM): did not reverse Example 60 effect
- CXCR4 structural activation/inactivation, Amax shift in fluorescence ([1]; ligand 100 μM added after SDF1α 15 μM): reversed SDF1α effect with a blue shift
Compound: c1cc(CN2CCCNCCNCCCNCC2)ccc1CN1CCCNCCNCCCNCC1 [AMD3100, plerixafor, reference compound]
- irrelevant GPCR activation state, Amax shift in fluorescence [2]: Neither benchmark ligands SDF1α and AMD3100, nor Example 60 showed any effect
- numbers of white blood cells in the blood vs vehicle control (Male C57BL/6 Rj mice): significantly higher
